Some test systems named below: HCC-2998 colon; SK-OV-3 ovarian; PC-3 prostate; K-562 leukemia; U251 CNS; MDA-MB-435; COLO 205 colon; T-47D breast; HCT-15 colon; SNB-75 CNS.
Assay in all cases: growth of human tumour cells (NCI), 48 h

Values joined by “and” are separate entries in the source; they are usually repeats but may differ in a detail not shown here. Equal values may be shown once.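 Test compounds were applied to cells in 96-well plates for 48 hours at 5 doses. The concentration for 50% growth inhibition is given as GI50. The concentration for full growth arrest is given as TGI.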

In the case of `Cc1nc(C)c(N2CCN(CN)CC2)c(=O)[nH]1`, the TGI in the test on HCC-2998 colon, in the test with SK-OV-3 ovarian, in the test on PC-3 prostate, in the test with K-562 leukemia, with U251 CNS and with MDA-MB-435 was above 100 µM throughout. Further, the TGI in the test with COLO 205 colon, in the test with T-47D breast and with HCT-15 colon was above 100 µM each time.

As for `Oc1cccc2c(Br)ccnc12`, the TGI with SNB-75 CNS was 66.2 µM; in the test with HCC-2998 colon it was 31.7 µM; with SK-OV-3 ovarian it was 66.8 µM; in the test on PC-3 prostate, 38.1 µM; in the test with K-562 leukemia, above 22.5 µM; in the test with U251 CNS, 20.4 µM. Moreover, the TGI is 34.3 µM in the test with MDA-MB-435, 27.3 µM with COLO 205 colon, above 51.5 µM with T-47D breast and 24.2 µM in the test with HCT-15 colon.

Consider `S=C1C(=Nc2ccccc2)N(c2ccccc2)/C(=N\c2cccc[n+]2Cc2ccccc2)N1c1ccccc1`, for which the TGI with SNB-75 CNS was 25.5 µM; in the test on HCC-2998 colon, 27.2 µM; in the test on SK-OV-3 ovarian it was 42.6 µM; with PC-3 prostate, 29.9 µM; in the test with K-562 leukemia, above 100 µM; in the test with MDA-MB-435 it was 22.3 µM. Also, the values for the TGI with COLO 205 colon, in the test with T-47D breast and in the test on HCT-15 colon were 34.9 µM, 61.7 µM and 45.7 µM, respectively.

As to `O=c1cc(-c2ccccc2)oc2c1ccc1[nH]c3ccccc3c(=O)c12`, the TGI in the test on SNB-75 CNS, in the test with HCC-2998 colon, in the test with SK-OV-3 ovarian, in the test on PC-3 prostate, in the test with K-562 leukemia and with U251 CNS was above 100 µM in each case. Further, the TGI in the test with MDA-MB-435, in the test on COLO 205 colon, in the test on T-47D breast and in the test on HCT-15 colon was above 100 µM throughout.

For the compound `c1ccc2c[n+](CCCC[n+]3ccc4ccccc4c3)ccc2c1`, the TGI in the test on SNB-75 CNS, in the test on HCC-2998 colon, in the test on SK-OV-3 ovarian, in the test with PC-3 prostate, in the test on K-562 leukemia and in the test with U251 CNS was above 100 µM throughout. Besides, the TGI in the test with MDA-MB-435, in the test on COLO 205 colon, in the test with T-47D breast and in the test with HCT-15 colon was above 100 µM each time.

Consider `Cc1cc(N2CCCCC2)nc2ccc(Cc3ccc4nc(N5CCCCC5)cc(C)c4c3)cc12`, for which the TGI in the test with SNB-75 CNS, with HCC-2998 colon, in the test on SK-OV-3 ovarian, with PC-3 prostate, in the test on K-562 leukemia and in the test with U251 CNS was above 100 µM throughout. In addition, the TGI with MDA-MB-435, with COLO 205 colon, in the test with T-47D breast and in the test on HCT-15 colon was above 100 µM in each case.

As to `O=C1C=CC(=O)c2c(O)c(N3CCOCC3)c(Cl)c(O)c21`, the TGI with SNB-75 CNS is 2.04 µM; with HCC-2998 colon, 3.16 µM; with SK-OV-3 ovarian it was 6.22 µM; in the test on PC-3 prostate, 1.56 µM; with K-562 leukemia, above 10 µM; with U251 CNS, 2.62 µM. Moreover, the TGI is 0.406 µM in the test with MDA-MB-435, 0.395 µM in the test on COLO 205 colon, 4.36 µM with T-47D breast and 0.403 µM in the test on HCT-15 colon.

For `CCOc1ccc2nc3nc(=O)[nH]c(C)c3c(NC(C)(CO)CO)c2c1`, the TGI in the test with SNB-75 CNS, in the test on HCC-2998 colon, in the test with SK-OV-3 ovarian, in the test on PC-3 prostate, in the test on K-562 leukemia and in the test on U251 CNS was above 100 µM throughout. In addition, the TGI with MDA-MB-435, in the test on COLO 205 colon, in the test on T-47D breast and in the test with HCT-15 colon was above 100 µM throughout.

For the compound `O=CC(O)C(O)C(O)C(O)COC(=O)NCCCCC(=O)C(F)(F)C(F)(F)C(F)(F)C(F)(F)C(F)(F)C(F)(F)C(F)(F)F` (stereo not given), the TGI turned out to be 59.5 µM with SNB-75 CNS; 60.4 µM with HCC-2998 colon; 56.4 µM in the test with SK-OV-3 ovarian; 41.5 µM in the test with PC-3 prostate; 58.5 µM in the test with K-562 leukemia; 62.4 µM in the test on MDA-MB-435. Besides, the figures for the TGI with COLO 205 colon, in the test on T-47D breast and in the test on HCT-15 colon were 61.7 µM, above 100 µM and above 100 µM, respectively.

For `CC/C=C/c1cc2c(cc1O)CCC1C2CC[C@@]2(C)C1CC[C@@H]2O` (stereo not given in full), the TGI in the test with SNB-75 CNS was found to be 8.14 µM; with HCC-2998 colon it was 33.2 µM; in the test with SK-OV-3 ovarian, 16.7 µM; in the test on PC-3 prostate it was 11.6 µM; in the test with K-562 leukemia, 7.66 µM; in the test on U251 CNS, 15.7 µM. The TGI with MDA-MB-435 is 1.12 µM; in the test with COLO 205 colon, 27.5 µM; in the test with T-47D breast it was 15 µM; in the test on HCT-15 colon, 29.9 µM.

On to `Cn1c2ccc(Cl)cc2c2ccc3c(c21)C(=O)C=CC3=O`, for which the TGI with SNB-75 CNS, in the test with HCC-2998 colon, with SK-OV-3 ovarian, with PC-3 prostate, in the test on K-562 leukemia and with U251 CNS was above 10 µM in each case. Also, the TGI in the test with MDA-MB-435, in the test on COLO 205 colon, in the test on T-47D breast and in the test on HCT-15 colon was above 10 µM in each case.

Take `CC(=O)OCC1OC(SC2=NC(=O)CS2)C(OC(C)=O)C(OC(C)=O)C1OC(C)=O` (stereo not given): the TGI in the test on SNB-75 CNS, in the test on HCC-2998 colon, with SK-OV-3 ovarian, with PC-3 prostate, in the test with K-562 leukemia and with MDA-MB-435 was above 100 µM in each case. The TGI with T-47D breast and with HCT-15 colon was above 100 µM in each case. The GI50 in the test with HCT-15 colon is 26.3 µM and 53 µM.

Regarding `CC(=O)CC(=O)N1CCSC1=S`, the TGI in the test on SNB-75 CNS, with HCC-2998 colon, in the test on SK-OV-3 ovarian, in the test with PC-3 prostate, in the test with K-562 leukemia and with U251 CNS was above 10 µM each time. Besides, the TGI with MDA-MB-435, in the test on T-47D breast and in the test on HCT-15 colon was above 10 µM throughout.

Source of the values: PubChem BioAssay (NCI).
